US10442810B2, “Pyrrolotriazine compounds as TAM inhibitors” (Incyte Corporation, priority 2016, dated 2019)

Assays:
Tyro3 = Tyro3 (Homo sapiens (Human), UniProt Q06418); assay: TAM Enzymatic Assay (HTRF), Tyro3; format: biochemical; conditions: 0.366 nM Tyro3, 60 min room temperature
Procedure: (§1) The kinase assay buffer contained 50 mM HEPES, pH7.5, 10 mM MgCl2, 1 mM EGTA, 0.01% NP-40 and 2 mM DTT. 0.1 ul test compounds dissolved in DMSO were transferred from compound plates to white 384-well assay plates (Greiner […] plates). […] 4 ul enzyme solution (or assay buffer for the enzyme blank) was added to the appropriate wells in each plate, and then 4 ul/well substrate solution was added to initiate the reaction. The plate was protected from light and incubated at room temperature for 60 min. […] The plate was incubated for 1 h at room temperature, and HTRF (homogenous time resolved fluorescence) signal was measured on a PHERAstar FS plate reader (BMG labtech). Percentage of inhibition was calculated for each concentration and IC50 value was generated from curve fitting with GraphPad Prism software.

Axl = Axl (Homo sapiens (Human), UniProt P30530); assay: TAM Enzymatic Assay (HTRF), phosphor-Axl; format: biochemical; conditions: 5.1 nM phosphor-Axl, 60 min room temperature
Procedure: Autophosphorylation of Axl was carried out by incubating the recombinant Axl protein (Life Technologies, PV4275) in buffer containing 50 mM Tris, pH7.5, 0.2 mg/ml Axl, 5 mM ATP, 20 mM MgCl2 and 2 mM DTT at room temperature for 1 hour.
as §1

NK cells = conditions: Paolino et al., 2014; cited from earlier work
[1] = system: tumor models with different histologies; conditions: Paolino et al., 2014; cited from earlier work
c-Mer = c-Mer (Homo sapiens (Human), UniProt Q12866); assay: TAM Enzymatic Assay (HTRF), c-Mer; format: biochemical; conditions: 0.0625 nM c-Mer, 60 min room temperature
Procedure: as §1

Axl, sequence (P30530 26-894): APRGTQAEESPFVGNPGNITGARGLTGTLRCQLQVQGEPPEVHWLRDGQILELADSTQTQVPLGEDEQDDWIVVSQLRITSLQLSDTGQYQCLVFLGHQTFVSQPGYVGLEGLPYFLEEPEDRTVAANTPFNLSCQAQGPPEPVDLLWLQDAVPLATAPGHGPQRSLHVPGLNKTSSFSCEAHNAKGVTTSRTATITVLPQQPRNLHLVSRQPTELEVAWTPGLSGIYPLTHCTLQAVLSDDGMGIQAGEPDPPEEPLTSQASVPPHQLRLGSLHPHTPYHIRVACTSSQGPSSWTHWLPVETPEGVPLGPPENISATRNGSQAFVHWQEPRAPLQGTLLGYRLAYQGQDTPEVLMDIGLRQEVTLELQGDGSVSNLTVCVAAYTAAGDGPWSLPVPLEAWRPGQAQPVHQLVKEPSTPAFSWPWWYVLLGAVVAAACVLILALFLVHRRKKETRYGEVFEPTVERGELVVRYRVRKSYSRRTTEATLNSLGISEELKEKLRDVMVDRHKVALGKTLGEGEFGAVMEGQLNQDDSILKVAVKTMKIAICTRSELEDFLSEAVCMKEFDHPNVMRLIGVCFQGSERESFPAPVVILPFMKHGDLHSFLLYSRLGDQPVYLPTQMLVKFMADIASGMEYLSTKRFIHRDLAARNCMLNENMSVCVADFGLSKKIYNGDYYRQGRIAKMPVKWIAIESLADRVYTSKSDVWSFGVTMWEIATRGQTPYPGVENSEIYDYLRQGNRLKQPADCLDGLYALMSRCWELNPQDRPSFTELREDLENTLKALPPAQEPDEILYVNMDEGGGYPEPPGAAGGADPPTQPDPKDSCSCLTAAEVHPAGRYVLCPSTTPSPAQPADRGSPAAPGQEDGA
Tyro3, sequence (Q06418 41-890): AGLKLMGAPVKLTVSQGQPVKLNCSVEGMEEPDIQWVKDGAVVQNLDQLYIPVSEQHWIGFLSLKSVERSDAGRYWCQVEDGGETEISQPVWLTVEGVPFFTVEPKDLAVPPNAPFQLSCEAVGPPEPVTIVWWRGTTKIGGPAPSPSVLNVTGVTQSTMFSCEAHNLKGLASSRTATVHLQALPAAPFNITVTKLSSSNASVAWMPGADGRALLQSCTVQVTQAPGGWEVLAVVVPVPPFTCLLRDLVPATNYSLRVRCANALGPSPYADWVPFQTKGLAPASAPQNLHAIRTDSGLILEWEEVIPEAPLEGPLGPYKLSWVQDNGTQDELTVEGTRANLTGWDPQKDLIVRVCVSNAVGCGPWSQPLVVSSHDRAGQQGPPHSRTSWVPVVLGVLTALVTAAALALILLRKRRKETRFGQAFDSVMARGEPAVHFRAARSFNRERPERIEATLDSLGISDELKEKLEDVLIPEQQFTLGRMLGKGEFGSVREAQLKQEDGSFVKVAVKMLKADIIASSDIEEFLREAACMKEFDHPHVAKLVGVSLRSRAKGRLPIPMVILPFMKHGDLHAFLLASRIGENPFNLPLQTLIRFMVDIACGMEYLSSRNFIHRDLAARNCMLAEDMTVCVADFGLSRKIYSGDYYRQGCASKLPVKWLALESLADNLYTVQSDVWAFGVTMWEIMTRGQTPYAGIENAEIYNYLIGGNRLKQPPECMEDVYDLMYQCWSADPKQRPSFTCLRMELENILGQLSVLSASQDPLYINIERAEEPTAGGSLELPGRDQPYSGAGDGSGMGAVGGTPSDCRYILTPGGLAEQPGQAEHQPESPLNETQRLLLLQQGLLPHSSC
c-Mer, sequence (Q12866 21-999): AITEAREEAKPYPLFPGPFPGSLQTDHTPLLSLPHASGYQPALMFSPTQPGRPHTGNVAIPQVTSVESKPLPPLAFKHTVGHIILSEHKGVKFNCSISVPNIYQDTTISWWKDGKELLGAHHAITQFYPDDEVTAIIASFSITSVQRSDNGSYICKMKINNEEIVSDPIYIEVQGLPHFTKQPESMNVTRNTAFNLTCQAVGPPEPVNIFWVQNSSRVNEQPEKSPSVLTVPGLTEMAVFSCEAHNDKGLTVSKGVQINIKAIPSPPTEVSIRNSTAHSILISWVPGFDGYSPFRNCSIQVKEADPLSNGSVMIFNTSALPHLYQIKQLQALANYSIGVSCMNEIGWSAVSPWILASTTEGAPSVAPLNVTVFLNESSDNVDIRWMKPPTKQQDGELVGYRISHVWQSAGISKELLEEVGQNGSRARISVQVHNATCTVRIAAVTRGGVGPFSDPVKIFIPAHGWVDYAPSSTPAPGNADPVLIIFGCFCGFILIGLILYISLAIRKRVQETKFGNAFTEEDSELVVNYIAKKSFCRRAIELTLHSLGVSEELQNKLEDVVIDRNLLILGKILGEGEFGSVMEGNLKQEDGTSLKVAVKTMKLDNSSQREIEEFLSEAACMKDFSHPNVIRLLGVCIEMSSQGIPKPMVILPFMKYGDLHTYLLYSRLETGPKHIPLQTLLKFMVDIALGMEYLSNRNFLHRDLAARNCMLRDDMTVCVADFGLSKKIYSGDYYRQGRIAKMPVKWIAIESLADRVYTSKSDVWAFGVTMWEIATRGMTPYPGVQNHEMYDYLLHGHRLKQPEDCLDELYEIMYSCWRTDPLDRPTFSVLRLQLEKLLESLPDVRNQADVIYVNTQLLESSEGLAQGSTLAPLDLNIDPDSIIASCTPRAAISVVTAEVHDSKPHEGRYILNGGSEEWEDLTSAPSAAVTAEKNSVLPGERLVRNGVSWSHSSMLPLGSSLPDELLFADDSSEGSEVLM

| SMILES | IC50 (Tyro3) [nM] | IC50 (Axl) [nM] | activation of NK cells (NK cells) | metastasis in tumor models [1] | IC50 (c-Mer) [nM] |
| --- | --- | --- | --- | --- | --- |
| CC(O)Cn1cc(C(=O)Nc2ccc(-c3cc(C4CCN(C(=O)C5CC5)CC4)n4ncnc(N)c34)cc2)c(=O)n(-c2ccccc2)c1=O (racemic) [Example 80, N-(4-(4-Amino-7-(1-(cyclopropanecarbonyl)piperidin-4-yl)pyrrolo[1,2-f][1,2,4]triazin-5-yl)phenyl)-1-(2-hydroxypropyl)-2,4-dioxo-3-phenyl-1,2,3,4-tetrahydropyrimidine-5-carboxamide] | > 100 | < 5 |  |  |  |
| CCOc1cn(-c2ccc(F)cc2C)nc1C(=O)Nc1ccc(Oc2ccnc3cc(OC)c(OC)cc23)c(F)c1 [LDC1267] |  |  | activates NK cells | blocks metastasis |  |
| CC(C)n1cc(C(=O)Nc2ccc(-c3cc(C4CCN(C5CCN(C)C5=O)CC4)n4ncnc(N)c34)cc2)c(=O)n(-c2ccccc2)c1=O (racemic) [Example 82, N-(4-(4-Amino-7-(1-(1-methyl-2-oxopyrrolidin-3-yl)piperidin-4-yl)pyrrolo[1,2-f][1,2,4]triazin-5-yl)phenyl)-1-isopropyl-2,4-dioxo-3-phenyl-1,2,3,4-tetrahydropyrimidine-5-carboxamide] |  | < 5 |  |  | ≤ 5 |
| CC(=O)c1cc(C(=O)Nc2ccc(-c3cc(C4CCN(C(=O)C(C)C)CC4)n4ncnc(N)c34)cc2)c(=O)n(-c2ccccc2)c1C [Example 112, 5-Acetyl-N-(4-(4-amino-7-(1-isobutyrylpiperidin-4-yl)pyrrolo[1,2-f][1,2,4]triazin-5-yl)phenyl)-6-methyl-2-oxo-1-phenyl-1,2-dihydropyridine-3-carboxamide] | 10 to 100 | < 5 |  |  | ≤ 5 |
